Read-outs that look alike come from different tables or passages of the source.
What was measured:
U87 cells = assay: Cell viability, Alamar Blue, 7-day incubation, U87; format: cell-based; conditions: Homo sapiens, U-87 MG, 168 h, MGMT −, error SEM
Description: (§1) Anticancer activity of C8 substituted imidazotetrazines. With a suite of imidazotetrazines in hand, each compound was evaluated against a panel of human GBM cell lines (Table 1a, Table 1b).

D54 cells = assay: Cell viability, Alamar Blue, 7-day incubation, D54; format: cell-based; conditions: Homo sapiens, D54, 168 h, MGMT −, error SEM
Description: as §1

T98G cells [1] = assay: Cell viability, Alamar Blue, 7-day incubation, T98G; format: cell-based; conditions: Homo sapiens, 168 h, MGMT +, error SEM
Description: as §1

[2] = test system: Br23c GBM oncosphere cell line; assay: Cell viability, Alamar Blue, 7-day, Br23c GBM oncosphere line; format: cell-based; conditions: Homo sapiens, 168 h, error SEM, read-out: 7-day IC50 MGMT − Br23C
[3] = Mouse liver microsome stability assay; format: in vitro ADME; conditions: for metabolic stability in words: mouse liver microsomes, 2 hours; for Stability (2 h, Microsomes): percentage remaining relative to t0, error SEM, n ≥ 2
Description: (§2) Liver microsome stability.
(§3) Mouse Liver Microsome Stability Assay. A mixture of PBS (pH 7.4), NADPH regenerating system solution A (Corning Life Sciences), and NADPH regenerating system solution B (Corning Life Sciences) was incubated at 37° C. in a shaking incubator for 5 min. Next, compound was added in DMSO (final concentration 50 μM, 0.5% DMSO) before ice-cold mouse liver microsomes (Thermo Fisher, male CD-1 mice, pooled) were added (final protein concentration of 1 mg/mL). An aliquot was immediately removed, quenched with an equal volume of 100 μM internal standard and 0.5% hydrochloric acid in ice-cold acetonitrile, and centrifuged at 13,000 rcf for 3 min. The supernatant was diluted 1:5 in ddH2O and analyzed by LC-MS. The reactions were incubated at 37° C. in a shaking incubator for 2 h. A second aliquot was removed, quenched and diluted as before and analyzed by LC-MS. The ratio of the areas of analyte:internal standard at 2 hours was compared to the ratio at t0 to determine the percentage of compound remaining. Analysis was performed on an Agilent 6230 LC/MS TOF system with a 1.8 μm, 2.1×50 mm Agilent ZORBAX Eclipse Plus C18 column.

[4] = test system: GBM Br23c oncospheres intracranially implanted; assay: Intracranial mouse model of GBM (Br23c oncospheres); format: in vivo; conditions: for increase in median survival over TMZ: equimolar to 15 mg/kg TMZ, oral gavage once-per-day, 5×/week, 7 weeks
Description: FIG. 5. Evaluation of imidazotetrazines in intracranial mouse models of GBM. GBM Br23c oncospheres were intracranially implanted into female athymic nude mice. Treatment was started 5 days post implantation. […] Compounds were formulated in 10% PEG in PBS immediately prior to each treatment. Number of mice per treatment cohort≥5. Survival curves were compared using log-rank test.
in vivo Efficacy Models. Human GBM Br23c stem-like neurosphere cells were intracranially implanted in female athymic nude mice (150,000 cells/mouse). […] Mice were observed daily for any signs of deterioration, neurotoxicity, or movement disorders. They were inspected for signs of pain and distress, as in accordance with the Johns Hopkins Animal Care and Use Guidelines.

T98G cells [5] = assay: cells; format: cell-based; conditions: for IC50: Homo sapiens, 7-day incubation; for Fold Change: between IC50 (+/−) O6BG
Description: FIG. 4. Imidazotetrazines were added to T98G cells with or without 3 h pre-treatment of O6BG (100 μM). IC50 values after 7-day incubation and fold changes between (+/−) O6BG treatments are reported. […] Error is SEM, n≥3. Statistical significance was determined by using a two-sample Student's t-test (two-tailed test, assuming equal variance).

[6] = Stability in the absence of microsomes (microsomes replaced with PBS); format: physicochemical; conditions: liver microsomes replaced with PBS, percentage remaining relative to t0
Description: as §2, §3

[7] = Assessment of hematological toxicity in vivo
Description: Assessment of hematological toxicity. […] Both lymphocyte (FIG. 3b) and neutrophil (FIG. 8a) concentrations were decreased in TMZ-treated mice. […] Total WBC, lymphocyte, and neutrophil counts for mice treated with these compounds were equivalent to those of control mice.
Assessment of Hematological Toxicity. Male CD-1 IGS mice (n=4 mice/group) were administered a single dose of 125 mg/kg compound intravenously. Imidazotetrazines were formulated with SBEβCD in sterile water immediately prior to injection. Seven days post-treatment, mice were humanely sacrificed and whole blood was collected for assessment of total white blood cells, lymphocytes, neutrophils, platelets, and red blood cells.

[8] = Hydrolytic stability in buffered saline (HPLC assay); conditions: saline at pH 7.0, 7.4, and 8.0, 2 h at 37° C.
Description: Hydrolytic stability of C8 substituted imidazotetrazines. […] A HPLC assay was developed to quantify the fraction of intact prodrug remaining in solution after 2 hours at pH 7.4, 37° C.

[9] = Table 1a, 7 days, n ≥ 3, read-out: IC50 U87
[10] = Table 1a, 7 days, read-out: IC50 D54
[11] = Table 1a, 7 days, read-out: IC50 T98G
[12] = 3 h pre-treatment with O6BG (100 μM)
[13] = Table 1b, read-out: 7-day IC50 U87
[14] = Table 1b, read-out: 7-day IC50 D54
[15] = Table 1b, read-out: 7-day IC50 T98G

Row | Compound | IC50 (U87 cells; [9]) [µM] | IC50 (D54 cells; [10]) [µM] | IC50 (T98G cells [1]; [11]) [µM] | metabolic stability in words [3] | other results
1 | CNC(=O)c1ncn2c(=O)n(C)nnc12 [Compound 4, N,3-dimethyl-4-oxo-3,4-dihydroimidazo[5,1-d][1,2,3,5]tetrazine-8-carboxamide] | 49 ± 7 | 11 ± 1 | 580 ± 20 | some susceptibility to the effects of the microsomes | IC50 [2]: 6 ± 1 µM; increase in median survival over TMZ [4]: 24%
2 | CN(C)C(=O)c1ncn2c(=O)n(C)nnc12 [Compound 5, N,N,3-trimethyl-4-oxo-3,4-dihydroimidazo[5,1-d][1,2,3,5]tetrazine-8-carboxamide] | 40 ± 20 | 12 ± 5 | 250 ± 60 | some susceptibility to the effects of the microsomes | IC50 [2]: 6 ± 1 µM; IC50 (T98G cells [5]; [12]): 25 ± 9 µM; IC50 (T98G cells [5]; 168 h, without O6BG): 250 ± 60 µM; Fold Change (T98G cells [5]): 10; increase in median survival over TMZ [4]: 46%
3 | CCCCN(CCCC)C(=O)c1ncn2c(=O)n(C)nnc12 [Compound 7, N,N-dibutyl-3-methyl-4-oxo-3,4-dihydroimidazo[5,1-d][1,2,3,5]tetrazine-8-carboxamide] | 27 ± 6 | 11 ± 2 | 140 ± 20 | markedly less stability in liver microsomes | Stability (2 h, Microsomes) [3]: 1 ± 1%; Stability (2 h, No Microsomes) [6]: 98 ± 3%
4 | Cn1nnc2c(C(=O)N3CCCC3)ncn2c1=O [Compound 8, 3-methyl-8-(pyrrolidine-1-carbonyl)imidazo[5,1-d][1,2,3,5]tetrazin-4(3H)-one] | 17 ± 3 | 12 ± 4 | 186 ± 5 | – | –
5 | CC(=O)c1ncn2c(=O)n(C)nnc12 [Compound 17, 8-acetyl-3-methylimidazo[5,1-d][1,2,3,5]tetrazin-4(3H)-one] | – | 18 ± 1 | – | generally stable to oxidative metabolism | IC50 [2]: 5.2 ± 0.3 µM; Cohort weight 7 days Post ([7]; mice, 7 days after single IV dose of 125 mg/kg, error SEM, 4 mice): 31 ± 1 g; Cohort weight Pre-treatment ([7]; mice, prior to single IV dose of 125 mg/kg, error SEM, 4 mice): 30 ± 1 g; myelosuppression / white blood cell effect ([7]; mice, single IV dose 125 mg/kg, complete blood count after 7 days): did not produce myelosuppression; IC50 (T98G cells [5]; [12]): 32 ± 4 µM; IC50 (T98G cells [5]; 168 h, without O6BG): 240 ± 20 µM; Fold Change (T98G cells [5]): 8; extension of median survival past TMZ-treated mice ([4]; 14.9 mg/kg oral once-per-day for 5 total doses): more than 50 days; pH dependence of hydrolysis [8]: pH-dependent
6 | Cn1nnc2c(Br)ncn2c1=O [Compound 18, 8-bromo-3-methylimidazo[5,1-d][1,2,3,5]tetrazin-4(3H)-one] | – | – | – | – | IC50 (U87 cells; [13]): 26 ± 7 µM; IC50 (D54 cells; [14]): 20 ± 1 µM; IC50 (T98G cells [1]; [15]): 60 ± 10 µM
7 | Cn1nnc2c(-c3ccc(F)cc3)ncn2c1=O [Compound 24, 8-(4-fluorophenyl)-3-methylimidazo[5,1-d][1,2,3,5]tetrazin-4(3H)-one] | – | – | – | – | IC50 (U87 cells; [13]): 13 ± 2 µM; IC50 (T98G cells [1]; [15]): 18 ± 2 µM
8 | Cn1nnc2c(-c3ccc(C(F)(F)F)cc3)ncn2c1=O [Compound 25, 3-methyl-8-(4-(trifluoromethyl)phenyl)imidazo[5,1-d][1,2,3,5]tetrazin-4(3H)-one] | – | – | – | – | IC50 (U87 cells; [13]): 16 ± 1 µM; IC50 (T98G cells [1]; [15]): > 100 µM
9 | Cn1nnc2c(-c3ccc(Cl)cc3)ncn2c1=O [Compound 26, 8-(4-chlorophenyl)-3-methylimidazo[5,1-d][1,2,3,5]tetrazin-4(3H)-one] | – | – | – | – | IC50 (U87 cells; [13]): 9 ± 1 µM; IC50 (D54 cells; [14]): 7 ± 1 µM; IC50 (T98G cells [1]; [15]): 19 ± 3 µM
10 | Cc1cnc(-c2ncn3c(=O)n(C)nnc23)o1 [Compound 27, 3-methyl-8-(5-methyloxazol-2-yl)imidazo[5,1-d][1,2,3,5]tetrazin-4(3H)-one] | 27 ± 4 | 9 ± 1 | 100 ± 20 | – | Cohort weight 7 days Post ([7]; mouse, in vivo, iv, 125 mg/kg): 31.6 ± 0.3 g; myelosuppression / white blood cell effect ([7]; mouse, in vivo, iv, 125 mg/kg): did not produce myelosuppression; IC50 (T98G cells [5]; [12]): 5 ± 1 µM; IC50 (T98G cells [5]; 168 h, without O6BG): 100 ± 20 µM; Fold Change (T98G cells [5]): 20
11 | Cn1nnc2c(C(N)=S)ncn2c1=O [Compound 28, 3-methyl-4-oxo-3,4-dihydroimidazo[5,1-d][1,2,3,5]tetrazine-8-carbothioamide] | 9 ± 1 | 8 ± 1 | 31 ± 4 | – | –

The next lines start with results.

Row | IC50 (U87 cells; [9]) [µM] | Compound | IC50 (D54 cells; [10]) [µM] | IC50 (T98G cells [1]; [11]) [µM] | metabolic stability in words [3] | other results
12 | 320 ± 7 | Cn1nnc2c(C(=O)O)ncn2c1=O [Compound 3] | 130 ± 8 | 321 ± 8 | – | –
13 | 80 ± 30 | CCN(CC)C(=O)c1ncn2c(=O)n(C)nnc12 [Compound 6, N,N-diethyl-3-methyl-4-oxo-3,4-dihydroimidazo[5,1-d][1,2,3,5]tetrazine-8-carboxamide] | 13 ± 2 | 160 ± 40 | – | Stability (2 h, Microsomes) [3]: 81 ± 1%; Stability (2 h, No Microsomes) [6]: 95 ± 2%
14 | 64 ± 21 | CCSC(=O)c1ncn2c(=O)n(C)nnc12 [Compound 10, S-ethyl 3-methyl-4-oxo-3,4-dihydroimidazo[5,1-d][1,2,3,5]tetrazine-8-carbothioate] | 8 ± 1 | 327 ± 4 | – | –
15 | 15 ± 4 | Cn1nnc2c(Cl)ncn2c1=O [Compound 19, 8-chloro-3-methylimidazo[5,1-d][1,2,3,5]tetrazin-4(3H)-one] | 21 ± 4 | 60 ± 10 | generally stable to oxidative metabolism | Stability (2 h, Microsomes) [3]: 91 ± 3%; Stability (2 h, No Microsomes) [6]: 91 ± 1%
16 | 9 ± 1 | Cn1nnc2c(-c3ccccc3)ncn2c1=O [Compound 23, 3-methyl-8-phenylimidazo[5,1-d][1,2,3,5]tetrazin-4(3H)-one] | 7 ± 1 | 14 ± 1 | – | Stability (2 h, Microsomes) [3]: 44 ± 2%; Stability (2 h, No Microsomes) [6]: 103 ± 5%

— patent US12234240B2, “Substituted imidazo[5,1-d][1,2,3,5]tetrazines for the treatment of cancer” (The Board of Trustees of the University of Illinois, priority 2018, dated 2025)
